Test results reported in US20070128217A1 (priority 2003, published 2007).

Assays:
[1] = system: rabbit serum obtained by immunizing a rabbit with the SARS-CoV strain Frankfurt 1; assay type: binding; parameters: Binding of a rabbit serum to linear peptides / Binding of a rabbit serum to looped peptides / Rabbit serum linear peptides / Rabbit serum looped peptides / Binding of a rabbit serum to linear peptides of protein N of SARS-CoV Urbani (Rabbit serum linear peptides) / Binding of a rabbit serum to looped/cyclic peptides of protein N of SARS-CoV Urbani (Rabbit serum looped peptides): unit not given here
[2] = system: antibodies in sera from SARS patients (sera 1a, 1b, 2, 6, 37, 62, London, SARS-yellow, SARS-green); assay type: binding, human; parameters: Binding of serum 6 to linear peptides of protein X1 of SARS-CoV Urbani / Binding of serum 37 to linear peptides of protein X1 of SARS-CoV Urbani / Binding of serum 6 to looped/cyclic peptide (PEPSCAN-ELISA) / Binding of serum 37 to looped/cyclic peptide (PEPSCAN-ELISA) / Binding of serum 37 to looped/cyclic peptides of protein X1 of SARS-CoV Urbani / Binding of serum 6 to linear peptides of protein X2 / Binding of serum 37 to linear peptides of protein X2 / Binding of serum 37 to looped/cyclic peptides of protein X2 of SARS-CoV Urbani / Binding of serum 6 to linear peptides of protein M of SARS-CoV Urbani / Binding of serum 37 to linear peptides of protein M of SARS-CoV Urbani / Binding of serum 6 to looped/cyclic peptides of protein M of SARS-CoV Urbani / Binding of serum 37 to looped/cyclic peptides of protein M of SARS-CoV Urbani / Binding of serum 6 to linear peptides of protein X3 of SARS-CoV Urbani / Binding of serum 37 to linear peptides of protein X3 of SARS-CoV Urbani / Binding of serum 37 to looped/cyclic peptides of protein X3 of SARS-CoV Urbani / Binding of serum 6 to linear peptides of protein X4 of SARS-CoV Urbani / Binding of serum 37 to linear peptides of protein X4 of SARS-CoV Urbani / Binding of serum 37 to looped/cyclic peptides of protein X4 of SARS-CoV Urbani / Binding of serum 6 to linear peptides of protein X5 of SARS-CoV Urbani / Binding of serum 37 to linear peptides of protein X5 of SARS-CoV Urbani / Binding of serum 37 to looped/cyclic peptides of protein X5 of SARS-CoV Urbani / Binding of serum 6 to linear peptides of protein N of SARS-CoV Urbani / Binding of serum 37 to linear peptides of protein N of SARS-CoV Urbani / Binding of serum 6 to linear peptide (PEPSCAN-ELISA) / Binding of serum 1a to looped/cyclic peptides of protein N of SARS-CoV Urbani / Binding of serum 1b to looped/cyclic peptides of protein N of SARS-CoV Urbani / Binding of serum 2 to looped/cyclic peptides of protein N of SARS-CoV Urbani / Binding of serum 6 to looped/cyclic peptides of protein N of SARS-CoV Urbani / Binding of serum 37 to looped/cyclic peptides of protein N of SARS-CoV Urbani / Binding of serum 62 to looped/cyclic peptides of protein N of SARS-CoV Urbani / Binding of serum London to looped/cyclic peptides of protein N of SARS-CoV Urbani / Binding of serum SARS-green to looped/cyclic peptides of protein N of SARS-CoV Urbani: unit not given here
[3] = system: control sera (pooled serum of ten healthy LUMC hospital workers; commercial negative donor pooled serum from the Dutch bloodbank); assay type: binding, human; parameters: Binding of Control serum LUMC to linear peptides / Binding of Control serum Blood-bank to linear peptides / Binding of Control serum LUMC to looped peptides / Binding of Control Serum Blood-Bank to Looped peptides / Binding of Control serum LUMC to linear peptides of the protein M of SARS-CoV Urbani / Binding of Control serum Blood-bank to linear peptides of the protein M of SARS-CoV Urbani / Binding of Control serum LUMC to looped peptides of the protein M of SARS-CoV Urbani / Binding of Control Serum Blood-Bank to Looped peptides of the protein M of SARS-CoV Urbani: unit not given here

For VQTCTPNVTINCQDP, the “Rabbit serum linear peptides” value [1] was 0.5, the “Rabbit serum looped peptides” value [1] was 0.4 and the “Binding of serum 1a to linear peptides of protein X5 of SARS-CoV Urbani” value [2] was 0.7. The “Binding of serum 1a to looped/cyclic peptides of protein X5 of SARS-CoV Urbani” value [2] was 0.6, the “Binding of serum 1b to linear peptides of protein X5 of SARS-CoV Urbani” value [2] was 0.8 and the “Binding of serum 1b to looped/cyclic peptides of protein X5 of SARS-CoV Urbani” value [2] was 0.5. The “Binding of serum 2 to linear peptides of protein X5 of SARS-CoV Urbani” value [2] was 0.7, the “Binding of serum 2 to looped/cyclic peptides of protein X5 of SARS-CoV Urbani” value [2] was 0.7 and the “Binding of serum 6 to linear peptides of protein X5 of SARS-CoV Urbani” value [2] was 0.8. The “Binding of serum 6 to looped/cyclic peptides of protein X5 of SARS-CoV Urbani” value [2] was 0.2, the “Binding of serum 37 to linear peptides of protein X5 of SARS-CoV Urbani” value [2] was 0.7 and the “Binding of serum 37 to looped/cyclic peptides of protein X5 of SARS-CoV Urbani” value [2] was 0.6. For the same sequence, the “Binding of serum 62 to linear peptides of protein X5 of SARS-CoV Urbani” value [2] was 0.8, the “Binding of serum 62 to looped/cyclic peptides of protein X5 of SARS-CoV Urbani” value [2] was 0.6 and the “Binding of serum London to linear peptides of protein X5 of SARS-CoV Urbani” value [2] was 0.8. For the same sequence, the “Binding of serum London to looped/cyclic peptides of protein X5 of SARS-CoV Urbani” value [2] was 0.3, the “Binding of serum SARS-green to linear peptides of protein X5 of SARS-CoV Urbani” value [2] was 0.7 and the “Binding of serum SARS-green to looped/cyclic peptides of protein X5 of SARS-CoV Urbani” value [2] was 0.3. The “Binding of serum SARS-yellow to linear peptides of protein X5 of SARS-CoV Urbani” value [2] was 0.3, the “Binding of serum SARS-yellow to looped/cyclic peptides of protein X5 of SARS-CoV Urbani” value [2] was 0.3 and the “Binding of Control Serum Blood-Bank to Looped peptides” value [3] was 0.6. For the same sequence, the “Binding of Control serum Blood-bank to linear peptides” value [3] was 0.6, the “Binding of Control serum LUMC to linear peptides” value [3] was 0.5 and the “Binding of Control serum LUMC to looped peptides” value [3] was 0.4.

With VSPKLFIRQEEVQQE the “Rabbit serum linear peptides” value [1] was 0.4, the “Rabbit serum looped peptides” value [1] was 0.3 and the “Binding of serum 1a to linear peptides of protein X4 of SARS-CoV Urbani” value [2] was 0.7. The “Binding of serum 1a to looped/cyclic peptides of protein X4 of SARS-CoV Urbani” value [2] was 0.6, the “Binding of serum 1b to linear peptides of protein X4 of SARS-CoV Urbani” value [2] was 0.5 and the “Binding of serum 1b to looped/cyclic peptides of protein X4 of SARS-CoV Urbani” value [2] was 1.0. The “Binding of serum 2 to linear peptides of protein X4 of SARS-CoV Urbani” value [2] was 0.3, the “Binding of serum 2 to looped/cyclic peptides of protein X4 of SARS-CoV Urbani” value [2] was 0.8 and the “Binding of serum 6 to linear peptides of protein X4 of SARS-CoV Urbani” value [2] was 0.3. The “Binding of serum 6 to looped/cyclic peptides of protein X4 of SARS-CoV Urbani” value [2] was 0.4, the “Binding of serum 37 to linear peptides of protein X4 of SARS-CoV Urbani” value [2] was 0.7 and the “Binding of serum 37 to looped/cyclic peptides of protein X4 of SARS-CoV Urbani” value [2] was 0.9. The “Binding of serum 62 to linear peptides of protein X4 of SARS-CoV Urbani” value [2] was 0.7, the “Binding of serum 62 to looped/cyclic peptides of protein X4 of SARS-CoV Urbani” value [2] was 0.8 and the “Binding of serum London to linear peptides of protein X4 of SARS-CoV Urbani” value [2] was 0.8. For the same sequence, the “Binding of serum London to looped/cyclic peptides of protein X4 of SARS-CoV Urbani” value [2] was 0.6, the “Binding of serum SARS-green to linear peptides of protein X4 of SARS-CoV Urbani” value [2] was 0.6 and the “Binding of serum SARS-green to looped/cyclic peptides of protein X4 of SARS-CoV Urbani” value [2] was 1.2. For the same sequence, the “Binding of serum SARS-yellow to linear peptides of protein X4 of SARS-CoV Urbani” value [2] was 0.3, the “Binding of serum SARS-yellow to looped/cyclic peptides of protein X4 of SARS-CoV Urbani” value [2] was 0.5 and the “Binding of Control Serum Blood-Bank to Looped peptides” value [3] was 0.4. For the same sequence, the “Binding of Control serum Blood-bank to linear peptides” value [3] was 0.5, the “Binding of Control serum LUMC to linear peptides” value [3] was 0.4 and the “Binding of Control serum LUMC to looped peptides” value [3] was 0.7.

In the case of VSTNLCTHSFRKKQV, the “Binding of a rabbit serum to linear peptides” value [1] is reported as 0.3, the “Binding of a rabbit serum to looped peptides” value [1] is reported as 0.2 and the “Binding of serum 1a to looped/cyclic peptides of protein X2 of SARS-CoV Urbani” value [2] is reported as 0.5. The “Binding of serum 1b to looped/cyclic peptides of protein X2 of SARS-CoV Urbani” value [2] was 0.3, the “Binding of serum 2 to looped/cyclic peptides of protein X2 of SARS-CoV Urbani” value [2] was 0.6 and the “Binding of serum 6 to looped/cyclic peptides of protein X2 of SARS-CoV Urbani” value [2] was 0.5. The “Binding of serum 37 to looped/cyclic peptides of protein X2 of SARS-CoV Urbani” value [2] was 0.5, the “Binding of serum 62 to looped/cyclic peptides of protein X2 of SARS-CoV Urbani” value [2] was 0.6 and the “Binding of serum London to looped/cyclic peptides of protein X2 of SARS-CoV Urbani” value [2] was 0.1. The “Binding of serum SARS-green to looped/cyclic peptides of protein X2 of SARS-CoV Urbani” value [2] was 0.3, the “Binding of serum SARS-yellow to looped/cyclic peptides of protein X2 of SARS-CoV Urbani” value [2] was 0.4 and the “Recognition of the peptide by sera of SARS-CoV infected individuals, and form (linear, looped/cyclic) in which it is recognized” value [2] was “recognized in linear form”. The “Binding of Control Serum Blood-Bank to Looped peptides” value [3] was 0.5, the “Binding of Control serum Blood-bank to linear peptides” value [3] was 0.8 and the “Binding of Control serum LUMC to linear peptides” value [3] was 0.6. The “Binding of Control serum LUMC to looped peptides” value [3] was 0.7.
